From the supplement of paper PMC8882468
± gives the standard deviation of the averaged measurements.

Columns and labels:
Assay in all cases: CTG-3D luminescence at 96 h relative to day-0 seeding control (ratio to day 0); higher = more growth / less cytotoxicity; PDxO 3D drug screen, 96 h, CTG-3D normalised to day-0 seeding control.
[1] = tested on: HCI-001 (organoid from a triple-negative breast cancer xenograft)
[2] = tested on: HCI-003.E2 (organoid from an ER-positive breast cancer xenograft)
[3] = tested on: HCI-010 (organoid from a breast cancer xenograft)
[4] = tested on: HCI-016 (organoid from a triple-negative breast cancer xenograft)

CCc1c2c(nc3ccc(O)cc13)-c1cc3c(c(=O)n1C2)COC(=O)[C@]3(O)CC [SN-38]
CTG-3D luminescence at 96 h
Details	12.5 pM	0.00025 µM	0.005 µM	0.1 µM	1 µM	10 µM	100 µM	625 fM
[1], days in culture: 240	1.51	0.771	0.767	0.396	0.155	0.0446	0.0627	1.46
[1], days in culture: 260	2.58	1	1.24	0.603	0.195	0.0569	0.027	1.29
[1], days in culture: 269	1.53	1.63	1.32	0.477	0.161	0.0511	0.0406	1.73
[1], days in culture: 327	1.72	1.61	1.83	0.602	0.127	0.0312	0.0351	2.1
[1], days in culture: 346	1.26	1.2	0.977	0.483	0.105	0.0311	0.0287	1.11
[1], days in culture: 364	1.37	0.978	1.19	0.283	0.0835	0.0303	0.0177	1.76
[3], days in culture: 52	2.37	2.36	0.389	0.0916	0.0768	0.267	0.243	2.19
[3], days in culture: 65	1.69	1.69	0.379	0.115	0.0812	0.317	0.334	0.54
[3], days in culture: 103	3.57	3.27	0.516	0.116	0.145	0.599	0.576	2.96
[4], days in culture: 153	2.8	1.73	1.68	0.253	0.0495	0.0432	0.0259	2.02
[4], days in culture: 172	2.16	2.11	1.21	0.157	0.0512	0.021	0.019	1.22
[4], days in culture: 190	1.83	1.12	1.17	0.151	0.0473	0.0272	0.0195	1.25
[4], days in culture: 199	1.87	1.62	1.36	0.126	0.0472	0.0229	0.0167	1.92

[2]
Details	CTG-3D luminescence at 96 h
12.5 pM	2.07 ± 0.86
0.00025 µM	2.06 ± 0.55
0.005 µM	1.68 ± 0.41
0.1 µM	1.64 ± 0.19
1 µM	1.24 ± 0.17
10 µM	0.339 ± 0.13
100 µM	0.213 ± 0.061
625 fM	1.94 ± 0.31

C=CC(=O)N1CCC[C@@H](n2nc(-c3ccc(Oc4ccccc4)cc3)c3c(N)ncnc32)C1 [ibrutinib]
CTG-3D luminescence at 96 h
Details	12.5 pM	0.00025 µM	0.005 µM	0.1 µM	1 µM	10 µM	100 µM	625 fM
[1], days in culture: 240	1.62	0.923	0.958	1.01	0.901	0.951	-0.0017	1.14
[1], days in culture: 260	2.29	1.15	2.12	0.971	1.31	1.12	-0.00311	1.46
[1], days in culture: 269	1.59	1.71	1.51	1.41	1.06	1.38	-0.0108	1.48
[1], days in culture: 327	1.45	1.07	1.49	1.3	1.25	0.932	-0.00545	1.92
[1], days in culture: 346	1.37	1.36	1.14	0.896	1.23	1.15	-0.00544	1.3
[1], days in culture: 364	1.37	1.18	1.57	0.992	1.12	1.02	-0.00371	1.6
[3], days in culture: 52	2.16	2.15	2.34	2.35	2.08	1.47	-0.00732	2.5
[3], days in culture: 65	1.67	1.66	1.79	1.73	1.79	0.888	-0.00863	1.69
[3], days in culture: 103	3.5	3.57	3.54	3.41	3.26	1.51	-0.0156	3.23
[4], days in culture: 153	3.08	1.69	2.64	2.11	2.69	1.59	-0.00474	2.85
[4], days in culture: 172	1.97	1.45	2	1.61	1.46	1.04	-0.00481	1.49
[4], days in culture: 190	1.59	1.26	1.45	1.11	0.915	0.881	-0.00814	1.37
[4], days in culture: 199	1.58	1.62	1.43	1.26	1.35	1.21	-0.00558	1.72

[2]
Details	CTG-3D luminescence at 96 h
12.5 pM	2.16 ± 0.65
0.00025 µM	2.46 ± 0.81
0.005 µM	2.1 ± 0.51
0.1 µM	1.93 ± 0.19
1 µM	1.86 ± 0.43
10 µM	0.903 ± 0.24
100 µM	-0.00322 ± 0.006
625 fM	2.1 ± 0.31

NC1(C(=O)N[C@@H](CCO)c2ccc(Cl)cc2)CCN(c2nc[nH]c3nccc2-3)CC1 [capivasertib]
CTG-3D luminescence at 96 h
Details	12.5 pM	0.00025 µM	0.005 µM	0.1 µM	1 µM	10 µM	100 µM	625 fM
[1], days in culture: 240	1.55	0.986	1.1	0.601	0.604	0.407	0.382	1.02
[1], days in culture: 260	2.26	1.47	1.9	1.32	0.652	0.532	0.449	1.71
[1], days in culture: 269	1.69	1.5	1.82	1.34	0.734	0.758	0.593	1.71
[1], days in culture: 327	1.71	1.3	1.7	1.35	0.84	0.552	0.71	1.81
[1], days in culture: 346	1.49	1.36	1.35	1	0.937	0.678	0.809	1.33
[1], days in culture: 364	1.6	1.21	1.21	0.928	0.847	0.605	0.375	1.47
[3], days in culture: 52	2.05	2.33	2.4	2.54	2.01	1.78	0.545	2.15
[3], days in culture: 65	1.57	1.77	1.93	1.6	1.47	1.18	0.287	1.58
[3], days in culture: 103	3.5	3.47	3.91	3.21	2.35	2.11	0.959	3.23
[4], days in culture: 153	3.06	1.93	2.64	2.32	2.43	1.43	0.426	2.85
[4], days in culture: 172	2.38	1.35	1.88	1.56	1.72	1.44	0.453	1.75
[4], days in culture: 190	1.81	1.24	1.5	0.925	1.13	1.1	0.565	1.47
[4], days in culture: 199	1.58	1.48	1.5	1.6	1.44	0.914	0.407	1.79

[2]
Details	CTG-3D luminescence at 96 h
12.5 pM	2.4 ± 0.86
0.00025 µM	2.22 ± 0.62
0.005 µM	2.03 ± 0.41
0.1 µM	1.76 ± 0.28
1 µM	0.832 ± 0.14
10 µM	0.479 ± 0.06
100 µM	0.0376 ± 0.0065
625 fM	2.12 ± 0.16

COc1cc2c(Oc3ccc4[nH]c(C)cc4c3F)ncnc2cc1OCCCN1CCCC1 [cediranib]
CTG-3D luminescence at 96 h
Details	12.5 pM	0.00025 µM	0.005 µM	0.1 µM	1 µM	10 µM	100 µM	625 fM
[1], days in culture: 240	1.68	1.12	1.16	0.837	1.93	0.491	0.00478	1.37
[1], days in culture: 260	1.84	0.917	1.79	1.4	1.81	0.0612	0.00103	1.3
[1], days in culture: 269	1.74	2.02	1.64	2.09	2.09	0.00899	-0.0128	1.63
[1], days in culture: 327	1.52	1.34	1.78	1.71	1.48	0.433	0.00365	1.84
[1], days in culture: 346	1.6	1.18	1.25	1.32	1.41	0.639	0.00677	1.33
[1], days in culture: 364	1.33	1.06	1.55	1.18	1.23	0.264	0.00077	1.44
[3], days in culture: 52	1.94	2.48	2.23	2.46	2.24	0.221	-0.0298	2.13
[3], days in culture: 65	1.55	1.65	1.76	1.77	1.42	0.593	-0.00161	1.63
[3], days in culture: 103	3.58	3.43	3.17	3.43	2.66	0.461	-0.00732	3.19
[4], days in culture: 153	3.21	2.24	2.18	2.54	3.03	0.161	-0.00356	2.44
[4], days in culture: 172	2.32	2.05	1.6	1.62	1.55	0.397	-0.000672	1.64
[4], days in culture: 190	1.57	1.2	1.45	1.43	1.44	0.423	5.93e-05	1.13
[4], days in culture: 199	1.23	1.38	1.17	1.65	1.57	0.0517	-0.0032	1.73

[2]
Details	CTG-3D luminescence at 96 h
12.5 pM	2.13 ± 0.86
0.00025 µM	2.53 ± 0.78
0.005 µM	2.12 ± 0.35
0.1 µM	2.33 ± 0.4
1 µM	1.95 ± 0.42
10 µM	0.251 ± 0.12
100 µM	0.0212 ± 0.037
625 fM	2.18 ± 0.54

C=CCn1c(=O)c2cnc(Nc3ccc(N4CCN(C)CC4)cc3)nc2n1-c1cccc(C(C)(C)O)n1 [adavosertib]
CTG-3D luminescence at 96 h
Details	12.5 pM	0.00025 µM	0.005 µM	0.1 µM	1 µM	10 µM	100 µM	625 fM
[1], days in culture: 240	1.67	0.913	1.22	0.745	0.618	0.244	0.152	1.51
[1], days in culture: 260	1.62	1.31	2.32	1.44	1.04	0.27	0.15	1.14
[1], days in culture: 269	1.43	1.7	1.59	1.8	0.496	0.254	0.087	1.65
[1], days in culture: 327	1.54	1.49	1.68	1.68	1.18	0.193	0.182	1.68
[1], days in culture: 346	1.44	1.34	1.22	1.52	1.48	0.163	0.121	1.33
[1], days in culture: 364	1.41	1.15	1.37	1.17	0.983	0.13	0.0626	1.6
[3], days in culture: 52	2.37	2.26	2.59	1.87	1	0.21	0.0806	2.17
[3], days in culture: 65	1.57	1.67	1.73	1.64	0.816	0.276	0.126	1.61
[3], days in culture: 103	3.65	3.76	3.59	2.95	1.62	0.459	0.242	3.13
[4], days in culture: 153	3.14	2.15	2.59	2.27	0.264	0.0723	0.0508	3.11
[4], days in culture: 172	2.14	1.63	1.55	1.14	0.176	0.0497	0.0492	1.62
[4], days in culture: 190	1.64	1.28	1.36	0.602	0.0834	0.0505	0.0792	1.02
[4], days in culture: 199	1.57	1.35	1.53	1.52	0.172	0.0306	0.0372	1.43

[2]
Details	CTG-3D luminescence at 96 h
12.5 pM	2.18 ± 0.8
0.00025 µM	2.35 ± 0.64
0.005 µM	2.25 ± 0.48
0.1 µM	2.28 ± 0.38
1 µM	1.54 ± 0.3
10 µM	0.668 ± 0.37
100 µM	0.388 ± 0.061
625 fM	2.01 ± 0.28
